Results published in patent publication US20260325655A1, “DECREASING THE INTRINSICALLY DISORDERED PROTEIN ALPHA-SYNUCLEIN’S LEVELS BY TARGETING ITS STRUCTURED MRNA WITH A RIBONUCLEASE TARGETING CHIMERA” (University of Florida Research Foundation, Incorporated, priority 2023, published 2026).

Assays:
RNase L = settings: regioisomer recruiter module of Syn-CTRL vs active recruiter (ref 48); cited from earlier work
fully base paired RNA = assay: MST binding to fully base paired control RNA; settings: microscale thermophoresis
Method: (§1) Binding Affinity Measurements: Microscale Thermophoresis (MST). Binding affinity measurements were performed on a Monolith NT.115 MST system (NanoTemper Technologies) with Cy5-labeled oligonucleotides. Briefly, Cy5-labeled RNA (5 nM) was prepared in 1× Folding Buffer and folded by heating at 60° C. for 5 min and then slowly cooling to room temperature. After cooling, Tween-20 was added to a final concentration of 0.1% (v/v). Compound solutions were prepared separately in 30 μL of 1× Assay Buffer at a final concentration of 5 μM (1% (v/v) DMSO), followed by 1:1 serial dilutions in 1× Assay Buffer. RNA and compound solutions were then mixed 1:1 by volume.
(§2) Samples were incubated for 20 min at room temperature and then loaded into premium capillaries (NanoTemper Technologies, Cat #MO-K025). The following parameters were used for MST measurement: 5-20% LED power (adjusted to keep fluorescence intensity between 8000 and 18000), 80% MST power, Laser-On time=30 s, and Laser-Off time=5 s. The resulting data were analyzed by calculating the change in thermophoresis as a function of compound concentration and fitted by Equation (3) in MST analysis software (NanoTemper Technologies) to yield the dissociation constant (Kd):
(§3) where F is the concentration of fluorescently labeled RNA; unbound and bound refer to the thermophoresis signal at completely unbound and bound state of RNA, respectively; c is the concentration of the compound; f (c) is the thermophoresis signal at compound concentration of c; Kd is the dissociation constant.

SNCA-UTR-Luciferase = assay: SNCA-UTR luciferase reporter assay; type: cell-based, human; settings: highest concentration tested
Excerpt: (§4) Plasmid constructs and establishment of reporter gene overexpressing cells. Construction of pIRES-Luc-EGFP-puro plasmid and pCDH-α-syn-5′-UTR-Luc-EGFP-puro plasmid used in 5′ UTR-luciferase-based selectivity assay were previously described.^4 Briefly, In-Fusion PCR cloning system (Takara Bio, Mountain View, CA, USA) was used for all plasmid constructions per the manufacturer's instructions. To ensure sequence accuracy, all plasmids generated in this study were confirmed by sequencing.
(§5) Luciferase assay. The effect of compounds on translation of SNCA IRE-containing transcript was measured by using a luciferase reporter assay. HeLa cells (~60% confluency) were transfected with plasmids (2 μg per 60 mm dish) by using JetPrime (Polyplus Transfection) according to the manufacturer's recommended procedures. Approximately 16 h after transfection, the transfection cocktail was removed, and the cells were trypsinized and seeded to 96-well plates (8,000 cells per well). After 6 h, cells were treated as described in Cell Culture. To measure the luciferase signals, the cells were then washed with 1× DPBS, and luciferase activity in each well was measured by using the ONE-Glo Luciferase Assay System (Promega) per the manufacturer's instructions. Luminescence from firefly luciferase reaction was measured using a Biomek FLx800 plate reader.

[1] = test system: control luciferase reporter lacking an IRE; assay: control luciferase reporter lacking an IRE; type: cell-based, human; settings: reporter lacks IRE / SNCA-UTR sequence
Excerpt: as §4, §5

[2] = test system: SNCA IRE-luciferase transcript; assay: SNCA IRE-luciferase transcript abundance by RT-qPCR; type: cell-based, human
Method: RNA extraction and reverse transcription-quantitative polymerase chain reaction (RT-qPCR). Total RNA was extracted from cells using a Quick-RNA MiniPrep Kit (Zymo Research) per the manufacturer's protocol including DNase treatment. For each sample, 200 ng of RNA was reverse transcribed into cDNA by using a qScript cDNA Synthesis Kit (QuantaBio) according to the manufacturer's instructions. To assess the relative mRNA levels, RT-qPCR was performed in triplicate using SYBR Green PCR mater mix (Applied Biosystems) with a Quant Studio 5 Real-Time PCR system. The relative levels of mRNA were calculated by using the ΔΔCt method as previously described.^8
as §4

SNCA IRE = assay: MST binding affinity for SNCA IRE (A bulge model RNA); settings: microscale thermophoresis; Cy5-labeled RNA
Method: as §1, §2, §3

In the case of `CCOC(=O)C1=C(Nc2ccccc2)S/C(=C\c2ccc(O)c(OCCOCCOCCOCCNC(=O)CCCOc3ccc(-n4c(SCC(=O)Nc5ccc6cn[nH]c6c5)nnc4-c4ccncc4)cc3)c2)C1=O` [Syn-CTRL], the “loss of activity of the RNase L-recruiting module in inducing RNase L cleavage” value (RNase L) is listed as ~ 20 -fold less active, the “binding towards the fully base paired RNA” value (fully base paired RNA) is listed as “no saturable binding” and the “decrease of luminescence signal (in words)” value (SNCA-UTR-Luciferase) is listed as “modest decrease”. The “inhibition in the control luciferase reporter” value [1] was “Neither compound showed inhibition”, the “effect on SNCA IRE-luciferase transcript levels (in words)” value [2] was “no effect” and the Kd (SNCA IRE) was 97 ± 3 nM.
